ChEMBL document CHEMBL1201862, “PubChem BioAssay data set” (2004)
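Growth conditions: 96-well plates. Treatment: test compound, 48 hours, 5 concentrations. Analysis: linear interpolation between bracketing concentrations; unreached endpoints set to highest concentration. GI50 is the concentration that inhibits growth by half.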 Activity calls are given as the source filed them. No stated cut-off is given here; in the data, active = GI50 up to about 1.1 µM and inactive = higher.

Assays:
Test in all cases: inhibition of tumour cell growth, NCI panel, 48 h
[1] = tested on: SK-MEL-28
[2] = tested on: SNB-19
[3] = tested on: SF-539
[4] = tested on: HOP-92
[5] = tested on: UACC-62
[6] = tested on: MCF7
[7] = tested on: SK-MEL-5
[8] = tested on: OVCAR-3
[9] = tested on: NCI-H23
[10] = tested on: HCT-15
[11] = tested on: UACC-257
[12] = tested on: HT-29
[13] = tested on: Malme-3M
[14] = tested on: UO-31
[15] = tested on: NCI-H226
[16] = tested on: SK-MEL-2
[17] = tested on: IGROV-1
[18] = tested on: LOX IMVI
[19] = tested on: SNB-75
[20] = tested on: PC-3
[21] = tested on: K562
[22] = tested on: Hs-578T
[23] = tested on: OVCAR-5
[24] = tested on: RXF 393
[25] = tested on: CAKI-1
[26] = tested on: SN12C
[27] = tested on: SF-268
[28] = tested on: SR
[29] = tested on: MDA-MB-231
[30] = tested on: HOP-62
[31] = tested on: COLO 205
[32] = tested on: BT-549
[33] = tested on: ACHN
[34] = tested on: OVCAR-4
[35] = tested on: HCC 2998
[36] = tested on: MDA-N
[37] = tested on: KM12
[38] = tested on: A549
[39] = tested on: NCI-H522
[40] = tested on: T47D
[41] = tested on: M14
[42] = tested on: DU-145
[43] = tested on: RPMI-8226
[44] = tested on: NCI/ADR-RES
[45] = tested on: A498
[46] = tested on: 786-0
[47] = tested on: U-251
[48] = tested on: SF-295
[49] = tested on: MOLT-4
[50] = tested on: SK-OV-3
[51] = tested on: TK-10
[52] = tested on: HL-60
[53] = tested on: OVCAR-8
[54] = tested on: SW-620
[55] = tested on: MDA-MB-435
[56] = tested on: EKVX
[57] = tested on: NCI-H460
[58] = tested on: HCT-116
[59] = tested on: CCRF-CEM

Measured: GI50

c1cncc(-c2cc(-c3cc(-c4cccnc4)[nH]n3)n[nH]2)c1
inactive: [1] > 100 µM | [2] > 100 µM | [3] > 100 µM | [4] > 100 µM | [5] > 100 µM | [6] > 100 µM | [7] > 100 µM | [8] > 100 µM | [9] > 100 µM | [11] > 100 µM | [12] > 100 µM | [13] > 100 µM | [14] > 100 µM | [15] > 100 µM | [16] > 100 µM | [17] > 100 µM | [18] > 100 µM | [19] > 100 µM | [20] > 100 µM | [21] > 100 µM | [22] > 100 µM | [23] > 100 µM | [24] > 100 µM | [25] > 100 µM | [26] > 100 µM | [27] > 100 µM | [28] > 100 µM | [29] > 100 µM | [30] > 100 µM | [31] > 100 µM | [32] > 100 µM | [33] > 100 µM | [34] > 100 µM | [35] > 100 µM | [36] > 100 µM | [37] > 100 µM | [38] > 100 µM | [39] > 100 µM | [40] > 100 µM | [41] > 100 µM | [42] > 100 µM | [43] > 100 µM | [44] > 100 µM | [45] > 100 µM | [46] > 100 µM | [47] > 100 µM | [48] > 100 µM | [49] > 100 µM | [50] > 100 µM | [51] > 100 µM | [52] > 100 µM | [53] > 100 µM | [54] > 100 µM | [55] > 100 µM | [56] > 100 µM | [57] > 100 µM | [58] > 100 µM
> 100 µM: [10]

O=C(NCCCl)N(O)C(=O)Nc1ccccc1
inactive: [2] > 100 µM | [3] > 100 µM | [4] > 100 µM | [5] > 100 µM | [6] > 100 µM | [7] 98.2 µM | [8] > 100 µM | [9] > 100 µM | [11] > 100 µM | [12] > 100 µM | [13] > 100 µM | [14] > 100 µM | [15] > 100 µM | [16] > 100 µM | [17] > 100 µM | [18] > 100 µM | [19] > 100 µM | [20] > 100 µM | [21] > 100 µM | [22] > 100 µM | [23] > 100 µM | [24] > 100 µM | [25] > 100 µM | [26] > 100 µM | [59] > 100 µM | [27] > 100 µM | [28] > 100 µM | [29] 67.8 µM | [30] > 100 µM | [31] > 100 µM | [32] > 100 µM | [33] > 100 µM | [34] > 100 µM | [35] > 100 µM | [36] > 100 µM | [37] > 100 µM | [38] > 100 µM | [39] > 100 µM | [40] > 100 µM | [41] > 100 µM | [42] 35.4 µM | [43] > 100 µM | [44] 74.6 µM | [45] > 100 µM | [46] > 100 µM | [47] > 100 µM | [48] > 100 µM | [49] > 100 µM | [50] > 100 µM | [51] > 100 µM | [52] > 100 µM | [53] > 100 µM | [54] > 100 µM | [55] > 100 µM | [56] > 100 µM | [57] > 100 µM | [58] > 100 µM
> 100 µM: [10]

Cc1cc(-c2nc3ccc(F)cc3s2)ccc1NC(=O)[C@H](C)N
3.79 µM: [10]
active: [6] < 0.0186 µM | [35] 0.428 µM | [40] 0.0559 µM
inactive: [1] 15.4 µM | [2] 14.3 µM | [3] 6.32 µM | [4] 10.7 µM | [5] 1.88 µM | [7] 12.9 µM | [8] 8.59 µM | [9] 12.9 µM | [11] 5.04 µM | [12] 2.56 µM | [13] 21.3 µM | [14] 4.14 µM | [15] 2.7 µM | [16] 12.4 µM | [17] 2 µM | [18] 1.99 µM | [19] 11.8 µM | [20] 11.9 µM | [22] 10.8 µM | [23] 4.56 µM | [24] 7.91 µM | [25] 8.18 µM | [26] 14.8 µM | [59] 1.64 µM | [27] 10 µM | [28] 2.07 µM | [29] 10.4 µM | [30] 8.22 µM | [31] 9.77 µM | [32] 13.7 µM | [33] 9.33 µM | [34] 10.2 µM | [36] 2.61 µM | [37] 3.97 µM | [38] 5.83 µM | [39] 7.74 µM | [41] 1.95 µM | [42] 12.7 µM | [43] 3.11 µM | [44] 13.2 µM | [45] 9.02 µM | [46] 4.66 µM | [47] 3.48 µM | [48] 9.71 µM | [49] 2 µM | [50] 13.6 µM | [52] 2.07 µM | [53] 11.6 µM | [54] 3.83 µM | [55] 2.49 µM | [56] 8.38 µM | [57] 2.14 µM | [58] 3.28 µM

COc1cc2cc(C(=O)N3CC(CCl)c4c3cc([N+](C)(C)Cc3ccc([N+](=O)[O-])n3C)c3ccccc43)[nH]c2c(OC)c1OC (stereo unspecified)
1.58 µM: [10]
inactive: [1] 2.33 µM | [2] 3.44 µM | [3] 2.02 µM | [5] 1.12 µM | [6] 1.46 µM | [7] 1.32 µM | [8] 4.06 µM | [11] 2.06 µM | [12] 1.29 µM | [13] 3.79 µM | [14] 1.17 µM | [15] 1.87 µM | [17] 1.58 µM | [18] 2.31 µM | [19] 2.35 µM | [22] 6.76 µM | [23] 6.05 µM | [25] 1.71 µM | [26] 4.54 µM | [59] 1.77 µM | [27] 2.62 µM | [29] 2.42 µM | [30] 4.02 µM | [32] 2.51 µM | [34] 1.88 µM | [36] 2.13 µM | [37] 2.14 µM | [40] 3.23 µM | [41] 3.61 µM | [46] 1.33 µM | [47] 2.33 µM | [48] 1.31 µM | [49] 1.93 µM | [50] 3.81 µM | [51] 2.67 µM | [52] 1.15 µM | [53] 1.38 µM | [54] 1.69 µM | [55] 3.79 µM | [56] 2.72 µM | [58] 1.48 µM
active: [4] 0.619 µM | [9] 0.472 µM | [16] 0.374 µM | [20] 0.184 µM | [24] 0.0107 µM | [28] < 0.0385 µM | [31] 0.989 µM | [33] 0.381 µM | [35] 0.3 µM | [38] 0.074 µM | [39] 0.0638 µM | [42] 0.935 µM | [43] 0.316 µM | [44] 0.849 µM | [45] 0.153 µM | [57] 0.327 µM
